From ChEMBL document CHEMBL5137062, “Overview of Methionine Adenosyltransferase 2A (MAT2A) as an Anticancer Target: Structure, Function, and Inhibitors” (J Med Chem, 2022)
Each block holds one compound with its values, some of them ahead of it.

Assays:
[1] = molecular target: T1, S-adenosylmethionine synthase isoform type-2 (Homo sapiens, UniProt P31153); assay: Inhibition of MAT2A (unknown origin) assessed as S-adenosyl methionine production using L-methionine as substrate pretreated for 60 mins followed by L-methionine and ATP addition
T1 sequence (P31153 whole entry, canonical isoform): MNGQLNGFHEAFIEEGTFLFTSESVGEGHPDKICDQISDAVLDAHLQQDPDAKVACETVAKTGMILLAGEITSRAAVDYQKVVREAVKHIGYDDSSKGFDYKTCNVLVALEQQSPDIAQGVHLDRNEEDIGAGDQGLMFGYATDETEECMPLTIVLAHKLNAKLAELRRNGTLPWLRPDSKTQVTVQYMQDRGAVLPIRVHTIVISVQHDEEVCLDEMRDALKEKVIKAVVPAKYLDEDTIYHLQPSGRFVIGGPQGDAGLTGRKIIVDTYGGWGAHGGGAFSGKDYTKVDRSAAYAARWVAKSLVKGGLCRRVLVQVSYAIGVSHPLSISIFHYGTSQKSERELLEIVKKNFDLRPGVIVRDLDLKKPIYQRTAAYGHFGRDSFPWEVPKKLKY

HCT-116 [2] = assay: Antiproliferative activity against human HCT-116 cells expressing MTAP assessed as cell growth inhibition measured after 6 days by Cell Titer Glo analysis; type: functional, cell-based; details: HCT-116, 144 h
[3] = Antiproliferative activity against human HCT116-MTAP null cells assessed as cell growth inhibition measured after 6 days by Cell Titer Glo analysis; type: functional, cell-based; details: 144 h
HCT-116 [4] = assay: Antiproliferative activity against human HCT-116 cells expressing MTAP assessed as cell growth inhibition incubated for 24 hrs by Cell Titer Glo analysis; type: functional, cell-based; details: HCT-116, 24 h
[5] = molecular target: T1, S-adenosylmethionine synthase isoform type-2; assay: Inhibition of human MAT2A expressed in baculovirus infected Sf9 cells expression system assessed as S-adenosyl methionine production using L-methionine as substrate pretreated for 60 mins followed by L-methionine and ATP addition
[6] = molecular target: T1, S-adenosylmethionine synthase isoform type-2; assay: Inhibition of MAT2A in human NCI-H520 cells transfected with MAT2A empty vector assessed as inhibition of S-adenosyl methionine production measured after 6 hrs by Rapid Fire Mass Spectrometry analysis; type: cell-based
[7] = molecular target: T1, S-adenosylmethionine synthase isoform type-2; assay: Inhibition of MAT2A in human Huh-7 cells assessed as inhibition of S-adenosyl methionine production measured after 6 hrs by Rapid Fire Mass Spectrometry analysis; type: cell-based
[8] = Inhibition of rat liver MAT isozymes assessed as S-adenosyl methionine production using L-methionine as substrate in presence of ATP; type: tissue-based
[9] = Inhibition of rat novikoff liver hepatoma MAT isozymes assessed as S-adenosyl methionine production using L-methionine as substrate in presence of ATP; type: tissue-based
[10] = molecular target: T1, S-adenosylmethionine synthase isoform type-2; assay: Inhibition of human MAT2A assessed as S-adenosyl methionine production using L-methionine as substrate pretreated for 60 mins followed by L-methionine and ATP addition by colorimetric analysis
[11] = Antiproliferative activity against human HCT116-MTAP null cells assessed as cell growth inhibition incubated for 92 hrs by In-cell western analysis; type: functional, cell-based
[12] = molecular target: T1, S-adenosylmethionine synthase isoform type-2; assay: Inhibition of human recombinant His-tagged MAT2A expressed in Escherichia coli expression system assessed as S-adenosyl methionine production using L-methionine as substrate incubated for 20 mins followed by L-methionine and ATP addition by malachite green phosphate assay
[13] = molecular target: S-adenosylmethionine synthase isoform type-1 (Homo sapiens) (UniProt Q00266); assay: Inhibition of N-terminal TEV cleavable 6His-tagged human MAT1A (1 to 334 residues) expressed in Escherichia coli BL21 (DE3) cells assessed as S-adenosyl methionine production using L-methionine as substrate incubated for 30 mins followed by L-methionine and ATP addition by MS/MS analysis relative to control
S-adenosylmethionine synthase isoform type-1 (Homo sapiens), sequence (Q00266 whole entry, the tested form may be a part, canonical isoform): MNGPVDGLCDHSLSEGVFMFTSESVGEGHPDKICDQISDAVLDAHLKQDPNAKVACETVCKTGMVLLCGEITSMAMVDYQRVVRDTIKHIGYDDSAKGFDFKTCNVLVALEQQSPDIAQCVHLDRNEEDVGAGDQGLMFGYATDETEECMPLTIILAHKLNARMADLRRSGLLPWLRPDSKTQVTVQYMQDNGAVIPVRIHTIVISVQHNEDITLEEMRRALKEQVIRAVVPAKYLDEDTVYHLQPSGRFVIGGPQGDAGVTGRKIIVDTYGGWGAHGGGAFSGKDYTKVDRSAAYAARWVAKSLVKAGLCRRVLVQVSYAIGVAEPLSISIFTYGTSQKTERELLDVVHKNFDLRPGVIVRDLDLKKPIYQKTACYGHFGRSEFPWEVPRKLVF

[14] = molecular target: T1, S-adenosylmethionine synthase isoform type-2; assay: Inhibition of N-terminal TEV cleavable 6His-tagged human MAT2A (1 to 395 residues) expressed in Escherichia coli BL21 (DE3) cells assessed as S-adenosyl methionine production using L-methionine as substrate incubated for 30 mins followed by L-methionine and ATP addition by MS/MS analysis

IC50 [1]: 0.0195 µM
IC50 (HCT-116 [2]): 3.8 µM
Compound: CCOc1ncc2cc(-c3ccc4ncn(C)c4c3)c(=O)n(-c3ccc(OC(F)F)cc3)c2n1
IC50 [3]: 0.0844 µM

IC50 (HCT-116 [4]): > 1 µM
IC50 [5]: < 0.1 µM
Compound: COc1ccc(-c2c(=O)n(-c3ccc4ncsc4c3)nc3ccc(OCC(F)F)nc23)cc1

IC50 (HCT-116 [4]): > 1 µM
IC50 [5]: < 0.1 µM
Compound: COc1ccc(N2Cc3ccc(NCC(F)(F)F)nc3N(c3ccc(-c4ncn[nH]4)cc3)C2=O)cc1

IC50 [6]: 5600 µM
IC50 [7]: 1300 µM
IC50 [8]: 209 µM
IC50 [9]: 209 µM
Compound: NC1(C(=O)O)CCCC1 [CYCLOLEUCINE]

IC50 [1]: 0.0701 µM
Compound: CCOc1ncc2cc(-c3ccc(OC)cc3C)c(=O)n(-c3ccc(OC(F)F)cc3)c2n1

IC50 [10]: < 0.5 µM
Compound: Cc1cc(C)c(-c2cnc(NC(=O)c3cccc(Cn4cccn4)c3)n2C)cc1C

IC50 (HCT-116 [4]): > 1 µM
IC50 [5]: < 0.1 µM
Compound: CCNc1ccc2nn(-c3ccc4nc(C)n(C)c4c3)c(=O)c(-c3ccc(C(F)F)cc3)c2n1

IC50 [5]: 0.008 µM
Compound: Cc1cc(=O)n2nc(C)c(-c3ccccc3)c2[nH]1
IC50 [11]: 0.009 µM

IC50 (HCT-116 [4]): > 1 µM
IC50 [5]: < 0.1 µM
Compound: CCNc1ccc2nn(-c3ccc4nn(C)cc4c3)c(=O)c(-c3ccc(Cl)cc3)c2n1

IC50 (HCT-116 [4]): > 1 µM
IC50 [5]: < 0.1 µM
Compound: [2H]C([2H])([2H])Oc1ccc(N2C(=O)N(c3ccc4nn(C)cc4c3)Cc3cnc(OCC(F)F)nc32)cc1

IC50 [10]: < 0.5 µM
Compound: Cc1cc(-c2cnc(NC(=O)c3cccc(CN4CCCC4=O)c3)n2C)ccc1O

IC50 (HCT-116 [4]): > 1 µM
IC50 [5]: < 0.1 µM
Compound: COc1ccc(N2C(=O)N(c3ccc4nn(C)cc4c3)Cc3cnc(NCC(F)(F)F)nc32)cc1

IC50 [12]: 2.1 µM
Compound: CNc1ccc(/C=C/c2c(F)cccc2Cl)cc1

IC50 [12]: 4.9 µM
Compound: CN(C)c1ccc(/C=C/c2c(F)cccc2F)cc1

IC50 [1]: 0.0365 µM
IC50 (HCT-116 [2]): > 10 µM
Compound: Cn1cnc2ccc(-c3cc4cnc(NCC(F)(F)F)nc4n(-c4ccc(OC(F)F)cc4)c3=O)cc21
IC50 [3]: 0.102 µM

IC50 [1]: 0.0047 µM
Compound: CCOc1ncc2cc(C3=CC4N=C(CCN5CCC(O)C5)N(C)C4C=C3)c(=O)n(-c3ccc(OC(F)F)cc3)c2n1 (stereo not given)

IC50 [10]: < 0.5 µM
Compound: Cc1cc(C)c(-c2cnc(NC(=O)c3cccc(Cn4ccccc4=O)c3)n2C)cc1Br

IC50 [6]: 1.2 µM
IC50 [7]: 0.225 µM
inhibition [13]: 50%
IC50 [14]: 0.42 µM
Compound: CN(C)CCc1nnc2cc(-c3ccccc3)c3cc(Cl)ccc3n12
